As a reminder, the IC50 is the concentration that gives 50% inhibition.

The text below walks through data of PMC9798004 (Frontiers in Psychiatry, 2022).

The target of one data set is T1, ADORA3 (Homo sapiens, UniProt P0DMS8).
T1 construct: host or cells: CHO
The experiment in a line: PathHunter β-arrestin assay. Particulars: antagonist mode vs EC80 of control agonist, 10-point curve. In kind it is cell-based.

Another data set addresses ADRA2B (Homo sapiens, UniProt P18089). In kind it is cell-based.
Another data set has as its target CALCRL-RAMP2 (Homo sapiens, UniProt O60895+Q16602). The experiment in a line: PathHunter β-arrestin assay. It is filed as cell-based. Particulars: antagonist mode vs EC80 of control agonist, 10-point curve.
A further data set has as its target T2, CHRM2 (Homo sapiens, UniProt P08172).
T2 sequence (P08172 1-466): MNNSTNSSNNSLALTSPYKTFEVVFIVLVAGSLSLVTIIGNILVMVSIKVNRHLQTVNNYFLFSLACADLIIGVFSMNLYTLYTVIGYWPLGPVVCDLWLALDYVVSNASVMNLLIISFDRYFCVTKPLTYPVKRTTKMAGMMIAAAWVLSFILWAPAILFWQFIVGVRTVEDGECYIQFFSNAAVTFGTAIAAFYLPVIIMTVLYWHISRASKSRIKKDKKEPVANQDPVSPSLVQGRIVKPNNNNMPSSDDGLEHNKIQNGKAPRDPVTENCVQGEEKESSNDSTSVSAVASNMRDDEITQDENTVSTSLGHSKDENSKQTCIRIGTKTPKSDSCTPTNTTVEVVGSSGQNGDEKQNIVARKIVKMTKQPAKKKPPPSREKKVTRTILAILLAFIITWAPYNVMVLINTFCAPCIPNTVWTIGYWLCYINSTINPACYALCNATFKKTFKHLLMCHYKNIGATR
The experiment in a line: PathHunter β-arrestin assay. Particulars: antagonist mode vs EC80 of control agonist, 10-point curve. It is filed as cell-based.

A further data set deals with CHRM3 (Homo sapiens, UniProt P20309). It is filed as cell-based.
In a further data set the target is DRD2L (Homo sapiens, UniProt P14416). The experiment in a line: PathHunter β-arrestin assay. It is filed as cell-based. The following applies: antagonist mode, up to 30 μM.
The next data set has as its target DRD5 (Homo sapiens, UniProt P21918). The experiment in a line: PathHunter β-arrestin assay. In kind it is cell-based. Particulars: antagonist mode vs EC80 of control agonist, 10-point curve.
For a further data set, the target named is T3, FPR1 (Homo sapiens, UniProt P21462).
T3 sequence (P21462 1-350): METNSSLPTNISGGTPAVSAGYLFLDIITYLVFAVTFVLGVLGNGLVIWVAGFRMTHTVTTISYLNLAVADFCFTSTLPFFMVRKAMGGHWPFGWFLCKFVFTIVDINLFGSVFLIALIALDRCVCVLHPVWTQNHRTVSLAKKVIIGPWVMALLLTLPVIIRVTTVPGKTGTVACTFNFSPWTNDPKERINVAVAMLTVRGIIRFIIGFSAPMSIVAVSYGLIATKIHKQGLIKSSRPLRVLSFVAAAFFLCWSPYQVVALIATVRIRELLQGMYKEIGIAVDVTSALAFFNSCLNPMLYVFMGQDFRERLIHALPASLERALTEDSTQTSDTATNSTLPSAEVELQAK
The experiment in a line: PathHunter β-arrestin assay. It is filed as cell-based. Particulars: antagonist mode vs EC80 of control agonist, 10-point curve.

A further data set addresses GPR35 (Homo sapiens, UniProt Q9HC97). The experiment in a line: PathHunter β-arrestin assay. It is filed as cell-based. The following applies: antagonist mode, up to 30 μM.
For another data set, the target named is T4, CCR6 (Homo sapiens, UniProt P51684).
T4 construct: purchased Eurofins DiscoverX (PathHunter gpcrMAX)
T4 sequence (P51684 1-374): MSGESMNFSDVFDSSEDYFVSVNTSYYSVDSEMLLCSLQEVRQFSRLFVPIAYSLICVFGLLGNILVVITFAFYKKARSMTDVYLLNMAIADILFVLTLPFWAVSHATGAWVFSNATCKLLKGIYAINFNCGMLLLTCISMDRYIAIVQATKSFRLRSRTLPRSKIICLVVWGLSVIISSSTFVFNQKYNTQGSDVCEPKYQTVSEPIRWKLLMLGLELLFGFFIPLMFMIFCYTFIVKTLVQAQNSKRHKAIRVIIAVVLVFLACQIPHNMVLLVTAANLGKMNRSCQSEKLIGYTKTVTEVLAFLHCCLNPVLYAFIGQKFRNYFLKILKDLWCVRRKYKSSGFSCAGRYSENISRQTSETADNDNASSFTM
The experiment in a line: PathHunter β-arrestin assay. In kind it is cell-based. The following applies: antagonist mode, up to 30 μM.

The next data set addresses HCRTR2 (Homo sapiens, UniProt O43614). Briefly: PathHunter β-arrestin assay. Particulars: antagonist mode vs EC80 of control agonist, 10-point curve. In kind it is cell-based.
The target of the next data set is HRH1 (Homo sapiens, UniProt P35367). In kind it is cell-based.
For a further data set, the target named is MC3R (Homo sapiens, UniProt P41968). Briefly: PathHunter β-arrestin assay. It is filed as cell-based. Particulars: antagonist mode vs EC80 of control agonist, 10-point curve.
For the next data set, the target named is MC4R (Homo sapiens, UniProt P32245). The experiment in a line: PathHunter β-arrestin assay. It is filed as cell-based. The following applies: antagonist mode vs EC80 of control agonist, 10-point curve.
Another data set concerns the target MC5R (Homo sapiens, UniProt P33032). Briefly: PathHunter β-arrestin assay. It is filed as cell-based. Particulars: antagonist mode vs EC80 of control agonist, 10-point curve.
The target of the next data set is MCHR1 (Homo sapiens, UniProt Q99705). Briefly: PathHunter β-arrestin assay. Particulars: antagonist mode, up to 30 μM. It is filed as cell-based.
The next data set addresses UTR2 (Homo sapiens, UniProt Q9UKP6). Briefly: PathHunter β-arrestin assay. It is filed as cell-based. Particulars: antagonist mode, up to 30 μM.
A further data set deals with 168 GPCRs. The experiment in a line: gpcrMAX panel 30 μM single-point β-arrestin screen (agonist and antagonist mode). In kind it is cell-based. Particulars: antagonist mode. The procedure:
Activity, or a “hit,” was defined as >30% in agonist mode, >35% in antagonist mode, or >50% in the orphan screen (agonist mode). Where these criteria were met, signal-to-noise (S/N) and coefficient of variation (CoV) were also calculated, defined as: […]
Agonist mode Antagonist modeS/N Compound mean/Baseline mean+(Baseline SD×3) EC80 mean/Compound-(Compound SD× 3)CoV Baseline mean/Compound mean-(Compound SD× 3) Compound mean/EC80 mean-(EC80 SD × 3)
Hits were verified to have S/N>1 and a CoV <1. Thresholds and subsequent validation were guided by Eurofins. Descriptive data (means ± S.E.M) was generated in Graphpad Prism (version 9.2.0, San Diego, CA).

On the set-up of data set [1]: method as in PMID 35210552. Particulars: rats; cited from earlier work.

“Also recorded” adds a separate entry of the source.

Sequence of MCHR1 (Q99705 whole entry): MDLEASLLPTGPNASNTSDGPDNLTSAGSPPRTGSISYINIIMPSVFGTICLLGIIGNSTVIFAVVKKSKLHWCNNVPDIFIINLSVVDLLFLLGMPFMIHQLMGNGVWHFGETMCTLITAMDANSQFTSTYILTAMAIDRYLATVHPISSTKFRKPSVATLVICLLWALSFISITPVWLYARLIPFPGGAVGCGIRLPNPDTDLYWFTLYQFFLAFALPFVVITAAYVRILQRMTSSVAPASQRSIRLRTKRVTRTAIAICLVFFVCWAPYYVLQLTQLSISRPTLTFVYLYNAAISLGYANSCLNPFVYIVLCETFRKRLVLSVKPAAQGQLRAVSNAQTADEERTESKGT
Sequence of DRD2L (P14416 whole entry): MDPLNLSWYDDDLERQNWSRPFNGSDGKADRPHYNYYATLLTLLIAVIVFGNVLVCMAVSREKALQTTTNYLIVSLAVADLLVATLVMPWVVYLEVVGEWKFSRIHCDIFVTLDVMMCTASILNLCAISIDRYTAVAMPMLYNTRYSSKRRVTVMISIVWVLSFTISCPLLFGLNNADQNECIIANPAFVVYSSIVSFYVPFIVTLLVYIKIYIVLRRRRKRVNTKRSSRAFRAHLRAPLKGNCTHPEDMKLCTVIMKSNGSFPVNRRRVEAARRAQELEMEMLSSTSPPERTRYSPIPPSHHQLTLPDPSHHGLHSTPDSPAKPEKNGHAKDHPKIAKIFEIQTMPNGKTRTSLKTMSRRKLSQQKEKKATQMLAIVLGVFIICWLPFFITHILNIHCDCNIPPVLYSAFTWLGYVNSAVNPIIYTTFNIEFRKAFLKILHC
Sequence of ADRA2B (P18089 whole entry): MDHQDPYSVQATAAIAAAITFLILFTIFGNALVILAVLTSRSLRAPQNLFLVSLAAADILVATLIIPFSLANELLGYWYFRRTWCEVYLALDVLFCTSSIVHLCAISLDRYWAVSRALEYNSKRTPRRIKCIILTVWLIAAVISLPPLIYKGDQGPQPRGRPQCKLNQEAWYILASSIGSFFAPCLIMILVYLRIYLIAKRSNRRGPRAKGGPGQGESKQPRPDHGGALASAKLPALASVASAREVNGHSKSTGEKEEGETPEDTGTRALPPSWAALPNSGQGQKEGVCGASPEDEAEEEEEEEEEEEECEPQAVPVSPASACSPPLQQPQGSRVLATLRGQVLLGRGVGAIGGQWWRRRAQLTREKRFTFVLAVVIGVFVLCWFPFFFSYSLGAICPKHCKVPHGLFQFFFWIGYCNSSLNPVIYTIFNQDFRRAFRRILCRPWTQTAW
Sequence of HRH1 (P35367 whole entry): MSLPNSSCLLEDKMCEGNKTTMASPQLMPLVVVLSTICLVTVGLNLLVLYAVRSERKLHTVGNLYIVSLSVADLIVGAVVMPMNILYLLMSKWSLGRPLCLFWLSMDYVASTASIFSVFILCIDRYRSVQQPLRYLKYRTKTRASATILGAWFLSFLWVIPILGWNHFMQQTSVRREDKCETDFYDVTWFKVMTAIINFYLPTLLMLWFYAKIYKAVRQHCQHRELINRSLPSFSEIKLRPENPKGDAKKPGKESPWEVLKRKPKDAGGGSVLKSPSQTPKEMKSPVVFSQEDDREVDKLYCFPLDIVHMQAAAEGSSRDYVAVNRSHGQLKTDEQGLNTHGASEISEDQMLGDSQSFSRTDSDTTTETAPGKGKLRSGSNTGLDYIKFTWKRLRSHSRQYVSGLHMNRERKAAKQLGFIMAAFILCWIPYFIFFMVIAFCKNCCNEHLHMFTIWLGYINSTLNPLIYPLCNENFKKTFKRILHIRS
Sequence of CALCRL-RAMP2 (Q16602 23-461): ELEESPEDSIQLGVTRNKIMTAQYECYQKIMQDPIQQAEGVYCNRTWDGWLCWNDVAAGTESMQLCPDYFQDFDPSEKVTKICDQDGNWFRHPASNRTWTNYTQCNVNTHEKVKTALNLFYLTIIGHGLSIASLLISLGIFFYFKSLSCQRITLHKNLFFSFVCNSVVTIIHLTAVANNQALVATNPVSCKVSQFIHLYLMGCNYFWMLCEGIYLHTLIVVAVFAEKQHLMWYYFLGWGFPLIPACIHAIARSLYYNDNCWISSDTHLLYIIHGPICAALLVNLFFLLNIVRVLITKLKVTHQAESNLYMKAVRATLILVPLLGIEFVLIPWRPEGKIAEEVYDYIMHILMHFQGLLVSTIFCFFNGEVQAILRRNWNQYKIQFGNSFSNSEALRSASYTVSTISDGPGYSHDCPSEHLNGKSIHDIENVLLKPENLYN
Sequence of CALCRL-RAMP2 (O60895 43-175 partner): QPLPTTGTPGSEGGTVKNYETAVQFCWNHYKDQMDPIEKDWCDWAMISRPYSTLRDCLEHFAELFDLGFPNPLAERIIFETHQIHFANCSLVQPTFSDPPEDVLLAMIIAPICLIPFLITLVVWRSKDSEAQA
Sequence of CHRM3 (P20309 whole entry): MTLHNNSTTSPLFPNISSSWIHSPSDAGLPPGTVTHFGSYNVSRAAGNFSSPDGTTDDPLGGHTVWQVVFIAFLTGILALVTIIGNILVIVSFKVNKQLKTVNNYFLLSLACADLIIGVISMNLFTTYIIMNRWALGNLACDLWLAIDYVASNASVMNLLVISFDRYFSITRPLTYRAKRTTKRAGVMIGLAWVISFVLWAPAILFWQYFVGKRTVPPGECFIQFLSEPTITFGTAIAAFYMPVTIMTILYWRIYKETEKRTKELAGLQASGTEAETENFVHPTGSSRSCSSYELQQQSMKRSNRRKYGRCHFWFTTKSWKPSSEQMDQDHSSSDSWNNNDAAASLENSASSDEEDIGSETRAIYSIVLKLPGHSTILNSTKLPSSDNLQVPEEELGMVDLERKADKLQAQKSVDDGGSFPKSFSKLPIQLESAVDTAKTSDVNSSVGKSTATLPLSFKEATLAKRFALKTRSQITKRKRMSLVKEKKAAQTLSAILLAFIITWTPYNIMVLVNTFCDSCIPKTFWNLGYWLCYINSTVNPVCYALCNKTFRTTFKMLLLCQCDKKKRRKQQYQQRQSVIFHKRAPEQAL
Sequence of UTR2 (Q9UKP6 whole entry): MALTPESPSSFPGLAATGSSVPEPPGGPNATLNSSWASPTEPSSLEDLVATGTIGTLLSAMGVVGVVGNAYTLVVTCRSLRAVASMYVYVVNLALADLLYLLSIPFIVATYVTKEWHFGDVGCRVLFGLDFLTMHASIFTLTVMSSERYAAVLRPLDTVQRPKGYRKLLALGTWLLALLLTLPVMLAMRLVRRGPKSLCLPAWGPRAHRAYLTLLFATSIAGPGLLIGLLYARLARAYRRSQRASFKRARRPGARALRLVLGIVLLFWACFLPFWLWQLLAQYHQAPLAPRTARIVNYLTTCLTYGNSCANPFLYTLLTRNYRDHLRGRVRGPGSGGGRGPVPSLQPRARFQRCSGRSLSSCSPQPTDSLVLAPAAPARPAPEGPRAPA
Sequence of DRD5 (P21918 whole entry): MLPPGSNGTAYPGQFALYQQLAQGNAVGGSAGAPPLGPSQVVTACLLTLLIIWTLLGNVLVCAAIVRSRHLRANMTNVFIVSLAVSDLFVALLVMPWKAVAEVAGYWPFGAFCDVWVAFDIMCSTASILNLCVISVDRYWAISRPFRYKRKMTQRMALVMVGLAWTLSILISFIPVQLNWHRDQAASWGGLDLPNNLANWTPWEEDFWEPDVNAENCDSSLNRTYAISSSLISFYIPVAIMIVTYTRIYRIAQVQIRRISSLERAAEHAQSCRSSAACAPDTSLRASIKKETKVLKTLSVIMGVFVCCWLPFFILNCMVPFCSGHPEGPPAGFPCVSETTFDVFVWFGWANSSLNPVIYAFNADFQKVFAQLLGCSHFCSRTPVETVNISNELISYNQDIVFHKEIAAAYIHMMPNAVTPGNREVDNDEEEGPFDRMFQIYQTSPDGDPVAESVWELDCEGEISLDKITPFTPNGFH
Sequence of MC4R (P32245 whole entry): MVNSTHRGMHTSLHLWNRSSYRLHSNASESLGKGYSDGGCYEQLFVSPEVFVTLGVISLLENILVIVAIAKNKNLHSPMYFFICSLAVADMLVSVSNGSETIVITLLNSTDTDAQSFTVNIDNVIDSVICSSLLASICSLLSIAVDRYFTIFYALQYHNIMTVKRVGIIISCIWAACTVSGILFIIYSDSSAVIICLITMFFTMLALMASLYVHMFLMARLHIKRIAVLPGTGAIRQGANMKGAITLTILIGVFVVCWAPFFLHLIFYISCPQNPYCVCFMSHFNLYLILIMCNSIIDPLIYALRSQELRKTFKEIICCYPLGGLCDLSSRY
T1 sequence (P0DMS8 whole entry): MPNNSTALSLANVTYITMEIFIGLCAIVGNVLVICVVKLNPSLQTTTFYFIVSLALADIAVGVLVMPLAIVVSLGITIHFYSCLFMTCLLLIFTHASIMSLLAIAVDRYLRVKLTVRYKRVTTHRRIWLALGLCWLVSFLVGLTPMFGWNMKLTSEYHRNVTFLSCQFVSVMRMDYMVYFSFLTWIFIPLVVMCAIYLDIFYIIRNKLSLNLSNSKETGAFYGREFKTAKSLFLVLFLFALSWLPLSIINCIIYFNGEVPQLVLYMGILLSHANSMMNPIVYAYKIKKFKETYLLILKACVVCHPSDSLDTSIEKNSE
Sequence of MC5R (P33032 whole entry): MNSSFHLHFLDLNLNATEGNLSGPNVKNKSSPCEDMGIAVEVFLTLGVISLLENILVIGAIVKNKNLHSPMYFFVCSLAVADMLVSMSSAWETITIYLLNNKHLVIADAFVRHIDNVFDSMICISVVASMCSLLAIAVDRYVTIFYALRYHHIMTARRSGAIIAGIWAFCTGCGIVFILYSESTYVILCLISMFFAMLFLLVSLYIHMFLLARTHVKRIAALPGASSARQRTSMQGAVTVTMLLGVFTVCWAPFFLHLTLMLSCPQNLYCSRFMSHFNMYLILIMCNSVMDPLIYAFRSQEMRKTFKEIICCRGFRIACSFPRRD

On to `COC(=O)[C@@H](NC(=O)c1nn(Cc2ccc(F)cc2)c2ccccc12)C(C)C` [AMB-FUBINACA], for which the IC50 is 14.6 µM on ADORA3; 2.29 µM at ADRA2B; 10.1 µM at CALCRL-RAMP2; 12.9 µM on CHRM2; 6.96 µM against CHRM3; 10.7 µM at DRD5. Moreover, the IC50 at FPR1 was determined as 7.91 µM; at HCRTR2 it was 12.7 µM; at HRH1, 1.42 µM; on MC3R it was 6.68 µM; on MC4R it was 5.85 µM; on MC5R, 14.1 µM. In addition, the “inhibitory activity at lower concentrations” value is on record as “appreciable inhibitory activity” on ADRA2B (antagonist mode, 1 μM) and “appreciable inhibitory activity” against HRH1 (antagonist mode, 1 μM). The “inhibitory activity in concentration-response” value is recorded as “Activity was only observed at the highest concentration (30 μM); also recorded: only inhibited at the highest 30 μM concentration” at DRD2L; “did not produce any clear activity” on GPR35; “Activity was only observed at the highest concentration (30 μM)” on CCR6; “Activity was only observed at the highest concentration (30 μM); also recorded: only inhibited at the highest 30 μM concentration” against MCHR1; “did not produce any clear activity” against UTR2. In the data set with 168 GPCRs, the “mean inhibition 30 μM, targets with >5-fold difference in S/N and CoV (n = 36)” value was determined as 97.00 ± 2.54%. Besides, the “mean inhibition of targets inhibited above 35% threshold” value with 168 GPCRs is given as 81.16%. The “number of off-targets inhibited (>35%)” value with 168 GPCRs is listed as “inhibited the greatest number of targets”. For the same compound, the “brain concentration relative to plasma” value in data set [1] is listed as ~ 5 fold.
